# Data from patent US7745589B1, “Antibodies and unnatural substrates of prenylation enzymes for use in detecting and isolating prenylated proteins” (University of Kentucky Research Foundation, priority 2005, dated 2010).
# What was measured:
# [1] = tested on: anti-AG antibody; assay: Western analysis of H-Ras modified by FTase with aniline analogs, probed with Anti-AG; assay type: binding, rabbits; conditions: H-Ras reacted with analog by FTase, FIG. 11A
# Method: (§1) Cells are harvested by scraping into 300 μl phosphate buffered saline containing protease inhibitor cocktail set 1 (calbiochem), followed by sonication on ice. Protein concentration is determined using a Bradford reagent kit (Pierce). The proteins from the FTase reaction mixtures or cell lysates are then separated using 12% SDS-polyacrylamide gels followed by transfer to nitrocellulose membranes. The membranes are incubated in blocking buffer PCT (see ELISA) for one hour at room temperature, after which the following steps are used: incubation with Anti-AG 1:1000 to 1:10,000 in PCT for one hour; 3×15 minute washes with vigorous shaking in PT buffer (see ELISA); incubation at room temperature one hour with goat anti-rabbit horseradish peroxidase-conjugated secondary antibody (Zymed) at a dilution of 1:20,000 in PCT buffer; and four 15 minute washes with PT buffer. The membranes are then subjected to enhanced chemiluminescence detection by incubation in 20 mL of detection buffer (Pierce Super Signal) for one minute.
# [2] = tested on: anti-NAG antibodies; assay: Western analysis of H-Ras modified by FTase with aniline analogs, probed with Anti-NAG; assay type: binding, rabbits; conditions: H-Ras reacted with analog by FTase, FIG. 11B
# [3] = molecular target: GGTaseI (Homo sapiens, UniProt P49354+P53609); assay: GGTaseI continuous spectrofluorometric assay with dansylated-GCaaX peptides; assay type: biochemical; conditions: for Substrate for GGTaseI: peptide not specified; for Substrate for GGTaseI with CVIL peptide: dansylated-GCVIL peptide; for Substrate for GGTaseI with CVIM peptide: dansylated-GCVIM peptide
# Method: The kinetic constants Km^peptide and kcat with GGPP, and the analogs with each peptide are determined in triplicate measurements using a continuous spectrofluorometric assay adapted for a 96-well plate. The following assay components are assembled in individual wells of a 96-well plate and incubated at 30° C. for 20 minutes: 180 μL of assay butler (52 mM Tris-HCl, 12 mM MgCl2, 12 μM ZnCl2 pH 7.4), 40 μL of detergent (0.125% n-dodecyl-β-D-maltoside in assay buffer), 40 μL of reducing agent (50 mM DTT in assay buffer) 20 μL of GGPP or analog (200 μM in 25 mM NH4HCO3) and 20 μL of N-dansyl-GCaaX peptide (variable concentration). Fluorescence is detected using a time based scan at 30° C. for 120 minutes. The velocity of each reaction is determined by converting the rate of increase in fluorescence intensity units (FLU/s) to μM/s with equation 1. vi=(R·P)/(FMAX−FMIN) Equation 1
# Where vi is the velocity of the reaction in μM/s. R is the rate of the reaction in FLU/s. P is equal to the concentration of modified product in μM (see below). FMAX is the fluorescence intensity of fully modified product. FMIN is the fluorescence of a reaction mixture that contained 20 μL of assay buffer in the place of GGTaseI. Complete modification of peptides is assumed when fluorescence stabilized for more than 10 minutes and is confirmed by RP-HPLC analysis of the reaction mixture.
# Final analysis peptide concentrations are chosen based on preliminary determination of the Km^peptide with 0.5, 1, 5 and 10 μM dansyl-GCaaX concentrations (see below). The final analysis used 8 peptide concentrations which are: ⅙, ⅕, ¼, ½, ¾, 1, 2, and 3 times the estimated Km^peptide. The reaction is then initiated by the addition of 20 μL of GGTaseI (final 10 nM). Fluorescence enhancement is determined as described above.
# Complete modification of peptides is assumed when fluorescence stabilized for more than 10 minutes and is confirmed by RP-HPLC analysis of the reaction mixture. […] Alternatively the extent of input peptide modified is determined by RP-HPLC analysis of the dansyl moiety peak absorbance corresponding to the unmodified and modified peptides. The percent of modified peptide relative to the total input peptide is used to calculate the concentration of product in the mixture.
# The velocities of the reactions are plotted against the concentration of peptide and are fit to the Michaelis-Menten equation (Equation 2) to give the apparent kcat (appkcat) and Km^peptide (appKmpeptide) values. Where et is the total enzyme concentration and [Pep] is the total input peptide. The kcat/Km^peptide value is derived from a Lineweaver-Burke plot of the same data points. vi/et=(appkcat*[Pep])/(appKm^peptide+[Pep]) Equation 2
# [4] = tested on: GGTaseI; assay: GGTaseI protein substrate modification of H-Ras; assay type: biochemical; conditions: relatively large amount of GGTaseI, Western blot FIG. 17A
# [5] = tested on: HEK-cells; assay: AGOH incorporation into unblocked cells; assay type: cell-based, human; conditions: 30 μM AGOH, no lovastatin blockade
# Method: Plates are coated with poly-L-Lysine and seeded with HEK-cells in Dulbecco's modified Eagle's medium with 5% fetal bovine serum. The cells ware then treated with DMSO as a vehicle, or 30 μM AGOH 5a is then added and incubated at 37° C. for the indicated time points. Medium is then removed and cells are extracted into 300 μL PBS containing Protease Inhibitor cocktail set 1 (Calbiochem). The samples are sonicated and centrifuged for 5 minutes. The supernatant is removed and used for western blotting.
# as §1, with “The membranes are then subjected to enhanced chemiluminescence detection by incubation in 20 mL of detection buffer (Pierce Super Signal) for one minute.” left out
# [6] = tested on: human embryonic kidney (HEK-293) cells; assay: Acute cytoxicity of anilinogeraniol in HEK-293 cells; assay type: cell-based; conditions: up to 100 μM, three days, relative to controls
# Description: Farnesol, geranylgeraniol and a number of farnesol analogues become incorporated into cellular proteins when added to the culture media of growing cells. See e.g., Crick, et al. (1995) Biochem Biophys Res Commun 211, 590-9; Crick, et al. (1997) Biochem Biophys Res Commun 237, 483-7. These compounds are thought to traverse the plasma membrane and act as a substrate for sequential kinase reactions to give FPP, GGPP or the diphosphate analogue which can be then be utilized by FTase or GGTaseI to appropriately modify cellular proteins. Thai, et al. (1999) Proc Natl Acad Sci U S A 96, 13080-5. The kinases involved in the phosphorylation reactions have been characterized in plants, but not in mammalian cells. […] See Chehade, et al. (2000) J. Org. Chem. 65, […]. It is thought that nilinogeraniol might also cross the plasma membrane of cells, be converted to the diphosphate and become incorporated into proteins by FTase. However, it is also possible that anilinogeraniol might be toxic to mammalian cells. Accordingly, the acute cytoxicity of anilinogeraniol is examined by incubating human embryonic kidney (HEK-293) cells with up to 100 μM anilinogeraniol for three days.
# [7] = tested on: HEK-293 cells; assay: AGOH labeling and FTI inhibition of label in HEK-293 cells; assay type: cell-based, human
# Method: Plates are coated with poly-L-Lysine and seeded with HEK-cells in Dulbecco's modified Eagle's medium with 5% fetal bovine serum. Cells are incubated in medium containing 30 μM lovostatin and 10 μM GGOH for 24 hrs. The media is poured off then replenished with media without lovostatin and GGOH and are treated with 3 μM FTI-277 (calbiochem), 20 μM GGTI-2147 (calbiochem) or no inhibitor and incubated at 37° C. for 1 hour. DMSO as a vehicle, or 100 μM AGOH is then added and incubated at 37° C. for two hours. Medium is then removed and cells are extracted into 300 μL PBS containing Protease Inhibitor cocktail set 1 (Calbiochem). The samples are sonicated and centrifuged for 5 minutes. The supernatant is removed and used for western blotting.
# Cells are harvested by scraping into 300 μl phosphate buffered saline containing protease inhibitor cocktail set 1 (calbiochem), followed by sonication on ice. Protein concentration is determined using a Bradford reagent kit (Pierce). The proteins from the FTase reaction mixtures or cell lysates are then separated using 12% SDS-polyacrylamide gels followed by transfer to nitrocellulose membranes. […]
# [8] = tested on: H460 (lung cancer cell line) and MCF7 (breast cancer cell line) cells; assay: Cell labeling with AFOH; assay type: cell-based; conditions: 30 μM AFOH overnight, FIG. 17B
# Method: Plates are coated with poly-L-Lysine and seeded with in Dulbecco's modified Eagle's medium with 5% fetal bovine serum. The cells are then treated with DMSO as a vehicle, or 30 μM AFOH is added and incubated at 37° C. overnight. Medium is then removed and cells are extracted into 500 μL of RIPA buffer containing Protease Inhibitor cocktail I (calbiochem). The supernatant is removed and used for western blotting.
# Protein concentration is determined using a Bradford reagent kit (Pierce) with 1:100 dilutions of the cell lysates. The proteins from the GGTaseI reaction mixtures or cell lysates are then separated using 12% SDS-polyacrylamide gels followed by transfer to nitrocellulose membranes. The membranes are incubated in blocking buffer PBS Casein and Tween buffer for one hour at room temperature, after which the following sequential steps are used: incubation with anti-AG or anti-NAG to 1:10,000 in PCT for one hour; 3×15 minute washes with vigorous shaking in PBS Tween buffer; incubation at room temperature one hour with goat anti-rabbit horseradish peroxidase-conjugated secondary antibody (Zymed) at a dilution of 1:20,000 in PCT buffer; and four 15 minute washes with PT buffer. The membranes are then subjected to enhanced chemiluminescene detection by incubation in 20 mL of detection buffer (Pierce Super Signal) for one minute.
# [9] = molecular target: T1, FTase (Homo sapiens, UniProt P49354+P49356); assay: FTase catalyzed in vitro modification of RDJ2 and H-Ras; assay type: biochemical; conditions: bacterially expressed proteins, intact Ca1a2X motifs
# Method: 2 μg of recombinant bacterially expressed RDJ2 is incubated with 20 μM AGPP or FPP and 5 μg FTase in 50 μL of TrisHCl buffer (pH=7.4). […] The reactions are incubated for 30 min at 37° C., boiled with SDS and PAGE performed using the protein concentrations indicated on the blots.
# [10] = molecular target: T1, FTase; conditions: in vitro; cited from earlier work
compound,measurement,setting,value
para-methyl-anilinogeranyl diphosphate [pMe-AGPP],Recognition of analog-modified H-Ras by anti-AG antibody,[1],able to cross-react
para-bromo-anilinogeranyl diphosphate [pBr-AGPP],Recognition of analog-modified H-Ras by anti-AG antibody,[1],able to cross-react
same,Recognition of analog-modified H-Ras by anti-NAG antibodies,[2],recognized
anilinofarnesyl diphosphate [AFPP],Substrate for GGTaseI,[3],both substrates
same,Incorporation of analog into H-Ras in vitro,[4],incorporated into the protein
"C/C(=C\CO)CC/C=C(\C)CNc1ccccc1 [AGOH, Anilinogeranyl alcohol]",Competition with endogenous pools of FPP,[5],competitive with the endogenous pools of FPP
same,Onset of anilinogeranyl incorporation into proteins,[5]; FIG. 14,within two hours
same,Cell growth,[6],no decrease in cell growth
same,Morphological changes,[6],no morphological changes
same,Anilinogeranyl modified proteins detected with Anti-AG in cell extracts,"[7]; cells blocked with lovostatin and treated with GGOH, 100 μM AGOH, FIG. 12",numerous anilinogeranyl modified proteins
"COC(=O)[C@H](CCSC)NC(=O)c1ccc(NC[C@@H](N)CS)cc1-c1ccccc1 [FTI-277, reference compound]",Effect of inhibitor on anilinogeranyl modification of cellular proteins,"[7]; cells incubated with AGOH, 3 μM FTI-277 or 20 μM GGTI-2147",no anilinogeranyl modified proteins are detected
"CC(C)=CCC/C(C)=C/CC/C(C)=C/CC/C(C)=C/COP(=O)(O)OP(=O)(O)O [GGPP, geranylgeranyl diphosphate, reference compound]",Substrate for GGTaseI with CVIL peptide,[3],confirmed to be a substrate
same,Substrate for GGTaseI with CVIM peptide,[3],confirmed to be a substrate
meta-cyano-anilinogeranyl diphosphate [mCN-AGPP],Recognition of analog-modified H-Ras by anti-AG antibody,[1],able to cross-react
same,Recognition of analog-modified H-Ras by anti-NAG antibodies,[2],recognized
"CC(=CCC/C(C)=C/COP(=O)(O)OP(=O)(O)O)CNc1ccc(F)cc1 [pF-AGPP, para-fluoro-anilinogeraniol diphosphate]",Recognition of analog-modified H-Ras by anti-AG antibody,[1],able to cross-react
"CC(=CCO)CCC=C(C)CCC=C(C)CNc1ccccc1 [AFOH, Anilinofarnesiol]",AFOH incorporation into cellular proteins,[8],does appear to be incorporated into proteins
"C/C(=C\COP(=O)(O)OP(=O)(O)O)CC/C=C(\C)CNc1ccccc1 [AGPP, anilinogeranyl diphosphate]",FTase catalyzed in vitro modification of RDJ2 and Q61L H-Ras,[9],provided lipid thioether-linked proteins
same,Transferable by FTase to a CVLS substrate,[10],transferable
para-cyano-anilinogeranyl diphosphate [pCN-AGPP],Recognition of analog-modified H-Ras by anti-NAG antibodies,[2],recognized
meta-bromo-anilinogeranyl diphosphate [mBr-AGPP],Recognition of analog-modified H-Ras by anti-AG antibody,[1],able to cross-react
ortho-fluoro-anilinogeranyl diphosphate [oF-AGPP],Recognition of analog-modified H-Ras by anti-AG antibody,[1],able to cross-react
meta-fluoro-anilinogeranyl diphosphate [mF-AGPP],Recognition of analog-modified H-Ras by anti-AG antibody,[1],able to cross-react
"C/C(=C\COP(=O)(O)OP(=O)(O)O)CC/C=C(\C)CNc1ccc([N+](=O)[O-])cc1 [NAGPP, para-nitro-anilinogeranyl diphosphate]",FTase catalyzed in vitro modification of RDJ2 and Q61L H-Ras,[9],provided lipid thioether-linked proteins
meta-methyl-anilinogeranyl diphosphate [mMe-AGPP],Recognition of analog-modified H-Ras by anti-AG antibody,[1],able to cross-react
"CC(=CCCC(C)=CCOP(=O)(O)OP(=O)(O)O)CCC=C(C)CNc1ccc([N+](=O)[O-])cc1 [NAFPP, pNO2-anilinofarnesyl diphosphate]",Substrate for GGTaseI with CVIL peptide,[3],are substrates when CVIL is the target
same,Substrate for GGTaseI with CVIM peptide,[3],none of the AGPP analogs or NAFPP are substrates
same,Substrate for GGTaseI,[3],both substrates
same,Incorporation of analog into H-Ras in vitro,[4],incorporated into the protein
